16 compounds from patent US6492397B1, “N-arylheteroarylalkyl imidazol-2-one compounds for treatment of arteriosclerosis” (Pharmacia Corporation, priority 1991, dated 2002) can be followed below.

Experiment [1] relates to rabbit aortic rings. As to the kind of experiment: Assay B: In Vitro Vascular Smooth Muscle Response for AII (antagonist activity in rabbit aortic rings). In kind it is cell-based. The note with it: Oryctolagus cuniculus, test antagonist at 10^-5 M, AII contraction, read-out: Assay B pA2 (converted). How it is done: Assay B: In Vitro Vascular Smooth Muscle-Response for AII
The compounds of the invention were tested for antagonist activity in rabbit aortic rings. Male New Zealand white rabbits (2-2.5 kg) were sacrificed using an overdose of pentobarbital and exsanguinated via the carotid arteries. The thoracic aorta was removed, cleaned of adherent fat and connective tissue and then cut into 3-mm ring segments. The endothelium was removed from the rings by gently sliding a rolled-up piece of filter paper into the vessel lumen. The rings were then mounted in a water-jacketed tissue bath, maintained at 37° C., between moveable and fixed ends of a stainless steel wire with the moveable end attached to an FT03 Grass transducer coupled to a Model 7D Grass Polygraph for recording isometric force responses. The bath was filled with 20 ml of oxygenated (95% oxygen/5% carbon dioxide) Krebs solution of the following composition (mM): 130 NaCl, 15 NaHCO3, […], 1.2 NaH2PO4, 1.2 MgSO4, 2.5 CaCl2, and 11.4 glucose. The preparations were equilibrated for one hour before approximately one gram of passive tension was placed on the rings. Angiotensin II concentration-response curves were then recorded (3×10^−10 to 1×10^−5 M). Each concentration of AII was allowed to elicit its maximal contraction, and then AII was washed out repeatedly for 30 minutes before rechallenging with a higher concentration of AII. Aorta rings were exposed to the test antagonist at 10^−5 M for 5 minutes before challenging with AII. Adjacent segments of the same aorta ring were used for all concentration-response curves in the presence or absence of the test antagonist. The effectiveness of the test compound was expressed in terms of pA2 values and were calculated according to H. O. Schild [Br. J. Pharmacol. Chemother., 2,189-206 (1947)]. The PA2 value is the concentration of the antagonist which increases the EC50 value for AII by a factor of two. Each test antagonist was evaluated in aorta rings from two rabbits.

The target in experiment [2] is smooth muscle angiotensin II receptor. As to the kind of experiment: Assay A: Angiotensin II Binding Activity (125I-angiotensin II displacement, rat uterine membrane preparation). As to conditions: 50% displacement of specifically bound 125I-AII, rat uterine membranes, 25° C., 60 min. How it is done: Assay A: Angiotensin II Binding Activity
Compounds of the invention were tested for ability to bind to the smooth muscle angiotensin II receptor using a rat uterine membrane preparation. […] Other chemicals were obtained from Sigma Chemical Co. This assay was carried out according to the method of Douglas et al [Endocrinology, 106, 120-124 (1980)]. Rat uterine membranes were prepared from fresh tissue. All procedures were carried out at 4° C. Uteri were stripped of fat and homogenized in phosphate-buffered saline at pH 7.4 containing 5 mM EDTA. The homogenate was centrifuged at 1500×g for 20 min., and the supernatant was recentrifuged at 100,000×g for 60 min. The pellet was resuspended in buffer consisting of 2 mM EDTA and 50 mM Tris-HCl (pH 7.5) to a final protein concentration of 4 mg/ml. Assay tubes were charged with 0.25 ml of a solution containing 5 mM MgCl2, 2 mM EDTA, 0.5% bovine serum albumin, 50 mM Tris-HCl, pH 7.5 and […] (approximately 10^5 cpm) in the absence or in the presence of unlabelled ligand. The reaction was initiated by the addition of membrane protein and the mixture was incubated at 25° C. for 60 min. The incubation was terminated with ice-cold 50 mM Tris-HCl (pH 7.5) and the mixture was filtered to separate membrane-bound labelled peptide from the free ligand. The incubation tube and filter were washed with ice-cold buffer. Filters were assayed for radioactivity in a Micromedic gamma counter. Nonspecific binding was defined as binding in the presence of 10 μM of unlabelled AII. Specific binding was calculated as total binding minus nonspecific binding. […] Binding data were analyzed by a nonlinear least-squares curve fitting program.

The test system of experiment [3] is pressor response to AII. As to the kind of experiment: Assay C: In Vivo Intragastric Pressor Assay Response for AII Antagonists. Also noted: species or system rat. As to conditions: for Assay C Duration: Dose: 3 mg/kg (i.g.), Sprague-Dawley rats, AII challenges up to 180 minutes after gavage; for inhibition in vivo at 3 mg/kg: Rattus norvegicus, po. How it is done:
Assay C: In Vivo Intragastric Pressor Assay Response for AII Antagonists
Male Sprague-Dawley rats weighing 225-300 grams were anesthetized with methohexital (30 mg/kg, i.p.) and catheters were implanted into the femoral artery and vein. The catheters were tunneled subcutaneously to exit dorsally, posterior to the head and between the scapulae. The catheters were filled with heparin (1000 units/ml of saline). The rats were returned to their cage and allowed regular rat chow and water ad libitum. After full recovery from surgery (3-4 days), rats were placed in Lucite holders and the arterial line was connected to a pressure transducer. Arterial pressure was recorded on a Gould polygraph (mmHg). Angiotensin II was administered as a 30 ng/kg bolus via the venous catheter delivered in a 50 μl volume with a 0.2 ml saline flush. The pressor response in mm Hg was measured by the difference from pre-injection arterial pressure to the maximum pressure achieved. The AII injection was repeated every 10 minutes until three consecutive injections yielded responses within 4 mmHg of each other. These three responses were then averaged and represented the control response to AII. The test compound was suspended in 0.5% methylcellulose in water and was administered by gavage. The volume administered was 2 ml/kg body weight. The standard dose was 3 mg/kg. Angiotensin II bolus injections were given at 30, 45, 60, 75, 120, 150, and 180 minutes after gavage. The pressor response to AII was measured at each time point. The rats were then returned to their cage for future testing. A minimum of 3 days was allowed between tests. Percent inhibition was calculated for each time point following gavage by the following formula: [(Control Response−Response at time point)/Control Response]×100.

Setting [4] is: first value of the pair (aorta rings from two rabbits).
The mark [5] stands for this setting: second value of the pair (aorta rings from two rabbits).

Like-named read-outs stand apart in the source and are kept apart here.

With `CCCc1cn(CCC)c(=O)n1Cc1ccc(-c2ccccc2-c2nnn[nH]2)nc1` [Example 2, 1,4-dipropyl-1,3-dihydro-3-[[6-[2-(1H-tetrazol-5-yl)phenyl]-3-pyridinyl]methyl]-2H-imidazol-2-one], the Kb in experiment [1] (setting [4]) was 7.41 nM. In addition, the Kb in experiment [1] (setting [5]) is 39.8 nM. Also, the IC50 in experiment [2] stood at 38 nM. Also, in experiment [3], the “Assay C Duration” value came to 180 min and at 3 mg/kg the inhibition in vivo was 25%.
In the case of `CCCCc1cn(CCc2ccccc2)c(=O)n1Cc1ccc(-c2ccccc2-c2nnn[nH]2)nc1` [Example 26, 1-(2-phenylethyl)-4-butyl-1,3-dihydro-3-[[6-[2-(1H-tetrazol-5-yl)phenyl]-3-pyridinyl]methyl]-2H-imidazol-2-one], in experiment [1] (setting [4]), the Kb is 4.37 nM. Also, in experiment [1] (setting [5]), the Kb is 3.63 nM. Further, in experiment [2], the IC50 stood at 3.6 nM. Moreover, in experiment [3], the “Assay C Duration” value is 180 min and at 3 mg/kg the inhibition in vivo was 15%.
As for `CCCCc1cn(-c2c(C)cccc2C)c(=O)n1Cc1ccc(-c2ccccc2-c2nnn[nH]2)nc1` [Example 38, 1-(2,6-dimethylphenyl)-4-butyl-1,3-dihydro-3-[[6-[2-(1H-tetrazol-5-yl)phenyl]-3-pyridinyl]methyl]-2H-imidazol-2-one], the concentration for half-maximal inhibition (IC50) in experiment [2] is 5 nM.
On the same count and under the same terms, then `CCCCc1cn(C23CC4CC(CC(C4)C2)C3)c(=O)n1Cc1ccc(-c2ccccc2-c2nnn[nH]2)nc1` [Example 30, 1-(1-adamantyl)-4-butyl-1,3-dihydro-3-[[6-[2-(1H-tetrazol-5-yl)phenyl]-3-pyridinyl]methyl]-2H-imidazol-2-one], with 65 nM.
`CCCn1cc(CC(C)C)n(Cc2ccc(-c3ccccc3-c3nnn[nH]3)nc2)c1=O` [Example 3, 1-propyl-4-isobutyl-1,3-dihydro-3-[[6-[2-(1H-tetrazol-5-yl)phenyl]-3-pyridinyl]methyl]-2H-imidazol-2-one]: the Kb was 34.7 nM in experiment [1] (setting [4]) and 112 nM in experiment [1] (setting [5]). In experiment [2], this compound showed an IC50 of 770 nM.
As to `CCCCc1cn(C2CCCC2)c(=O)n1Cc1ccc(-c2ccccc2-c2nnn[nH]2)nc1` [Example 23, 1-cyclopentyl-4-butyl-1,3-dihydro-3-[[6-[2-(1H-tetrazol-5-yl)phenyl]-3-pyridinyl]methyl]-2H-imidazol-2-one], the Kb was 0.912 nM in experiment [1] (setting [4]) and 2.51 nM in experiment [1] (setting [5]). The same compound gave a half-inhibitory concentration (IC50) in experiment [2] of 99 nM.
For the compound `CCCCc1cn(-c2ccccc2OC)c(=O)n1Cc1ccc(-c2ccccc2-c2nnn[nH]2)nc1` [Example 34, 1-(2-methoxyphenyl)-4-butyl-1,3-dihydro-3-[[6-[2-(1H-tetrazol-5-yl)phenyl]-3-pyridinyl]methyl]-2H-imidazol-2-one], the 50% inhibitory concentration (IC50) in experiment [2] was 9 nM.
For the compound `CCCCn1cc(CCC2CC2)n(Cc2ccc(-c3ccccc3-c3nnn[nH]3)nc2)c1=O` [Example 9, 1-butyl-4-(2-cyclopropylethyl)-1,3-dihydro-3-[[6-[2-(1H-tetrazol-5-yl)phenyl]-3-pyridinyl]methyl]-2H-imidazol-2-one], the Kb in experiment [1] (setting [4]) was 0.537 nM. In addition, the Kb in experiment [1] (setting [5]) is 1.35 nM. The same compound displayed an IC50 in experiment [2] of 11 nM. In experiment [3], the “Assay C Duration” value amounted to 180 min and the inhibition in vivo at 3 mg/kg is 10%.
For the compound `CCCCc1cn(CCC2CCCC2)c(=O)n1Cc1ccc(-c2ccccc2-c2nnn[nH]2)nc1` [Example 27, 1-(2-cyclopentylethyl)-4-butyl-1,3-dihydro-3-[[6-[2-(1H-tetrazol-5-yl)phenyl]-3-pyridinyl]methyl]-2H-imidazol-2-one], the Kb in experiment [1] (setting [4]) was 1.82 nM; in experiment [1] (setting [5]) it was 2.14 nM. Besides, the 50% inhibitory concentration (IC50) in experiment [2] is 18 nM. Moreover, the “Assay C Duration” value in experiment [3] is above 180 min. The same compound came in with an inhibition in vivo at 3 mg/kg in experiment [3] of 35%.
For `CCCCn1cc(C2CCCCC2)n(Cc2ccc(-c3ccccc3-c3nnn[nH]3)nc2)c1=O` [Example 7, 1-butyl-4-cyclohexyl-1,3-dihydro-3-[[6-[2-(1H-tetrazol-5-yl)phenyl]-3-pyridinyl]methyl]-2H-imidazol-2-one] the same measures were 17.8 nM, 17.4 nM, 81 nM, 180 min and 10%.
Consider `CCCCc1cn(-c2ccccc2C)c(=O)n1Cc1ccc(-c2ccccc2-c2nnn[nH]2)nc1` [Example 33, 1-(2-methylphenyl)-4-butyl-1,3-dihydro-3-[[6-[2-(1H-tetrazol-5-yl)phenyl]-3-pyridinyl]methyl]-2H-imidazol-2-one], for which the IC50 in experiment [2] came to 9.4 nM. In experiment [3], the “Assay C Duration” value was above 180 min and the inhibition in vivo at 3 mg/kg is 65%.
For the compound `CCCCn1cc(CCC(C)C)n(Cc2ccc(-c3ccccc3-c3nnn[nH]3)nc2)c1=O` [Example 5, 1-butyl-4-isopentyl-1,3-dihydro-3-[[6-[2-(1H-tetrazol-5-yl)phenyl]-3-pyridinyl]methyl]-2H-imidazol-2-one], the Kb is 2.29 nM in experiment [1] (setting [4]) and 5.89 nM in experiment [1] (setting [5]). In experiment [2], this compound yielded an IC50 of 29 nM.
Consider `CCCCn1cc(CC(C)C)n(Cc2ccc(-c3ccccc3-c3nnn[nH]3)nc2)c1=O` [Example 4, 1-butyl-4-isobutyl-1,3-dihydro-3-[[6-[2-(1H-tetrazol-5-yl)phenyl]-3-pyridinyl]methyl]-2H-imidazol-2-one], for which the Kb in experiment [1] (setting [4]) is 19.1 nM; in experiment [1] (setting [5]), 81.3 nM. In experiment [2], this compound came in with an IC50 of 140 nM.
`CCCCc1cn(C2C3CC4CC(C3)CC2C4)c(=O)n1Cc1ccc(-c2ccccc2-c2nnn[nH]2)nc1` (stereo not shown) [Example 29, 1-(2-adamantyl)-4-butyl-1,3-dihydro-3-[[6-[2-(1H-tetrazol-5-yl)phenyl]-3-pyridinyl]methyl]-2H-imidazol-2-one] registered a half-maximal inhibitory concentration (IC50) in experiment [2] of 51 nM.
On the same count and under the same terms, then `CCCCc1cn(-c2ccccc2)c(=O)n1Cc1ccc(-c2ccccc2-c2nnn[nH]2)nc1` [Example 31, 1-phenyl-4-butyl-1,3-dihydro-3-[[6-[2-(1H-tetrazol-5-yl)phenyl]-3-pyridinyl]methyl]-2H-imidazol-2-one], with 45 nM.
The same measure, in the same setting: then `CCCCc1cn(-c2ccccc2C(C)C)c(=O)n1Cc1ccc(-c2ccccc2-c2nnn[nH]2)nc1` [Example 35, 1-(2-isopropylphenyl)-4-butyl-1,3-dihydro-3-[[6-[2-(1H-tetrazol-5-yl)phenyl]-3-pyridinyl]methyl]-2H-imidazol-2-one], with 14 nM.
